The source of these data is patent publication US11845803B2, “Combination therapies for treatment of BCMA-related cancers and autoimmune disorders” (Fred Hutchinson Cancer Center, priority 2017, dated 2023).

The subject of series [1] is primary human myeloma tumor cells. The series can be described thus: BCMA-specific T-ChARM T cells co-cultured with primary myeloma cells in the presence of GSI (cytokines, proliferation). Type of series: cell-based. As to the method:
(A) IL-2 production by BCMA CAR-T cells (BCMA-specific T-ChARM C11 3ST-CD28 and BCMA-specific T-ChARM C11 3ST-41BB) or control CD19sh CAR (short spacer)-T cells co-cultured with primary human myeloma tumor cells for 24 hours alone or with various concentrations of GSI RO429097 (0.003 μM to 3.0 μM).
(B) IFN-γ production by BMCA T-ChARM T cells co-cultured with myeloma cells at various concentrations of RO429097.
(O) Intracellular staining showing IFN-γ production (y-axis) and CD8 expression (x-axis) by T-ChARM T cells of the present disclosure cultured with primary MM cells from 2 patients in the absence (0 μM; left panels) or presence (1 μM; right panels) of GSI RO4929097.
(P) IFN-γ production (geometric mean fluorescence intensity (gMFI)) by T-ChARM T cells of the present disclosure cultured with primary MM cells in the presence of the indicated concentration of RO4929097 (x-axis).
(Q) IFN-γ production (normalized MFI; y-axis) by T-ChARM T cells of the present disclosure cultured with primary MM cells in the presence of the indicated concentration of RO4929097 (x-axis).
(R) Proliferation of T-ChARM T cells of the present disclosure in the presence of primary MM cells that were untreated (grey shading) or treated with 1.0 μM GSI RO4929097.
To examine the effect of a GSI on CAR T cell activity against BCMA^+ multiple myeloma, IL-2 production by BCMA CAR-T cells (BCMA-specific T-ChARM C11 3ST-CD28 and BCMA-specific T-ChARM C11 3ST-41BB) or control CD19sh CAR (short spacer)-T cells was measured after co-culture with primary human myeloma tumor cells for 24 hours in media containing at various concentrations of GSI RO429097 (0.003 μM to 3.0 μM) (FIG. 4A).
Next, the effect of GSI on T cell functionality of T cells containing a BCMA-specific T-ChARM was examined.

The subject of series [2] is CD19 CAR-T cells co-cultured with Raji or K562/CD19+ target cells. The series can be described thus: CD19 CAR-T cell viability and effector function in the presence of GSI. It counts as cell-based, human. As to the method: (A) CD19 staining of K562 CD19^+ and Raji cells that were cultured with or without GSI for ±12-16 h. Isotype control shown as gray line.
(C) CD19 CAR-T cells were co-cultured with K562/CD19 target cells in media containing various concentrations of RO4929097. RO4929097 inhibits CD19 CAR-T cell effector function at concentrations of 3 μM when co-cultured, as determined by measuring IL-2 (upper panel) and IFNγ (lower panel) production.
(D) IL-2 production by CD19 CAR-T cells cultured with target cells in the presence of increasing concentrations of GSI RO4929097.
(E) IL-2 production by CD19 CAR-T cells cultured with target cells (“K562 CD19”) or control cells (“KS562 BCMA”) in the presence of increasing concentrations of GSI RO4929097. Cells were administered the indicated amounts of the GSI and then washed (empty bars) or not (filled bars).
(F) Data from another experiment showing IL-2 production by CD19 CAR-T cells after overnight co-culture with K562 BCMA^+ or K562 CD19^+ cells following pre-incubation with varying concentrations of GSI. After washing, GSI was either added back in (+/+) or left out of the co-culture (+/−) to assess the reversibility of cytokine production.
(G) Specific lysis, by CD19 CAR-T cells, of the indicated target or control cells in the presence of GSI RO4929097.
(H) Proliferation of CD19 CAR-T cells cultured with CD19-expressing target cells in the presence or absence of GSI or with control cells in the absence of GSI. Cells were stained with CFSE and proliferation was measured by flow cytometry.
(I) Graphic representation of the number of cell divisions of CD19 CAR-T cells in the presence of the indicated concentrations of GSI RO4929097. The width of the horizontal bars represents the proportion of CAR-T cells in culture that divided the indicated number of generations (i.e., 5, 4, 3, 2, 1, or 0 generations) over the course of the experiment.
[…] Cell counts (CD8 staining) during expansion of CD19-specific CAR-T cells with CD19^+ TM LCL cells and exogenous IL-2 in the absence of GSI (circle) or the presence of GSI at 0.5 μM (square) or 5 μM (triangle).
(K) Cell counts of CD19-specific CAR-T cells (CD4:CD8 (1:1) expanded with CD19^+ TM. LCL cells in the absence or presence of GSI as indicated, but without the addition of exogenous IL-2.
(L) IFN-γ concentrations in supernatants of GSI-expanded anti-CD19 CAR CD8^+ T cells following re-stimulation with K562 cells (no antigen), K562 CD19^+ cells, or Raji cells.
(M, N) Production of IFN-γ (M) and IL-2 (N) by the CD4:CD8 anti-CD19 CAR-T cell mixture following re-stimulation with the indicated cell lines in the absence of GSI or the presence of either 0.5 μM or 5 μM GSI.
Without wishing to be bound by theory, a potential caveat of using GSI to augment BCMA on myeloma cells to improve CAR-T cell recognition is that high concentrations of GSI may inhibit T-cell signaling and effector functions. See Eagar et al., Immunity 20(4):407, 2004. To evaluate potential effects of GSI on CAR T cells in a setting where target ligand expression remains stable, CD19 CAR-T cells were co-cultured with Raji or K562/CD19^+ target cells in the presence of GSI (0.01 μM to 100 μM) and measured viability and effector function. Over this concentration range there was no effect on CD19 antigen expression (FIG. 5A) or on CAR-T cell viability after 24 hours (FIG. 5B). […] However, the ability of the CD19 CAR-T cells to specifically kill target cells was not affected by GSI concentration (FIG. 5G). […] To further investigate the dosage effect of GSI on CAR-T cell division, a dose titration of GSI RO4929097 was added to co-cultures of CD19 CAR-T and target cells.

[3] abbreviates: expanded in 5 μM, 0.5 μM or no GSI.

Molecules are shown by their SMILES. Where only a bound is given, the exact number is not on record here.

Consider `CC(C)(C(=O)NCC(F)(F)C(F)(F)F)C(=O)N[C@@H]1C(=O)Nc2ccccc2-c2ccccc21` [RO4929097], for which the “IL-2 production by BCMA T-ChARM T cells” value in series [1] (24 hours co-culture, GSI 0.003 μM to 3.0 μM) was “dose dependent increase”. The “proliferation of CFSE-labeled BCMA-specific T-ChARM T cells” value in series [1] (3 days co-culture with primary myeloma cells) was “increased in a dose dependent manner”. Also, the “IFN-γ production and CD8 expression by co-cultured T-ChARM T cells” value in series [1] (GSI treatment of primary myeloma tumor samples) is listed as “greatly improved”. Besides, in series [1] (co-culture with myeloma cells, various GSI concentrations), the “IFNγ production by BCMA T-ChARM T cells” value is “increased”. For the same compound, the “proliferation of T-ChARM T cells” value in series [1] (primary MM cells treated with 1.0 μM GSI vs untreated) is “increased proliferation”. Besides, the “GSI concentration at which effects on T-ChARM T cell IFN-γ were seen” value in series [1] (primary myeloma tumor samples) is at least 0.1 µM. Moreover, the “proliferation of CD19 CAR-T cells in response to target cells” value in series [2] (10 μM GSI vs absence of GSI) is recorded as “less effectively”. Also, in series [2] (8 days in culture with or without exogenous IL-2, GSI 0.5 or 5 μM), the “expansion of CD19 CAR-T cells” value is given as “did not show a decrease in expansion”. Moreover, the “CD19 antigen expression on target cells” value in series [2] (GSI 0.01 μM to 100 μM) is “no effect”. In addition, the CAR-T cell viability entry in series [2] (GSI 0.01 μM to 100 μM, 24 hours) is listed as “no effect”. In addition, the “T cell function (cytokine production, cell lysis activity, proliferation)” value in series [2] (GSI at therapeutic levels) is listed as “does not affect T cell function”. In series [2] (setting [3]), the “IFN-γ production on re-stimulation after expansion in GSI” value was “did not show a significant difference” and the “IL-2 production on re-stimulation after expansion in GSI” value was “not markedly different”. Moreover, the CAR-T cell division entry in series [2] (non-therapeutic dose (10 μM)) was “detectably inhibit proliferation”. In series [2] (range of GSI concentrations), the “specific killing of target cells by CD19 CAR-T cells” value was “not affected”. The CAR-T cell division result in series [2] (therapeutic doses of GSI (0.01 μM-1 μM)) was “essentially unaffected or only slightly affected”.
